Measurements from US9649306B2, “Treatment of diseases through administration of N-[5-(3,5-difluoro-benzyl)-1H-indazol-3-yl]-4-(4-methyl-piperazin-1-yl)-2-(tetrahydro-pyran-4-ylamino)-benzamide” (NERVIANO MEDICAL SCIENCES S.R.L., priority 2012, dated 2017).
“Also recorded” adds a separate entry of the source.

Assay: Hygroscopicity test by Dynamic Vapour Sorption (DVS 1000, SMS)
Assay type: physicochemical
Conditions: for hygroscopicity (in words): DVS, 0-90% RH at 25° C.
Excerpt: The observed water uptake was investigated by submitting a sample of such substances to a hygroscopicity test by means of a DVS 1000 (SMS). The apparatus is a “controlled atmosphere microbalance” where the weighed sample is exposed to programmed variations of the relative humidity (RH) at a constant and controlled temperature. The measured parameters (weight, time and RH), reported in Excel worksheets, allow obtaining hygroscopicity curves over the tested RH range. For example, sorption/desorption cycles between 0% and 90% RH can be performed at controlled temperature of 25° C. Progressive variations of RH can be, for example, of 10% and 3% and are operated by the software at the equilibration of the sample weight. This condition can be defined at a constant rate of percent weight variation such as, for example, 0.005%/min. FIG. 6 reports the DVS profiles of the amorphous form, crystalline form 1 and crystalline form 2 of the compound of formula (I). Relative Humidity (RH, %) values are reported on the x-axis while Change in Mass (%) is reported on the y axis. The curves are related to the sorption step between 0% RH and 90% RH at 25° C.

[1] = DVS sorption step, 25° C./90% RH

water uptake (DVS at 25° C., from RH values lower than 30% RH) | water uptake [1] [%] | hygroscopicity (in words) | SMILES
 | 0.6 | low hygroscopicity | CN1CCN(c2ccc(C(=O)Nc3n[nH]c4ccc(Cc5cc(F)cc(F)c5)cc34)c(NC3CCOCC3)c2)CC1 [crystalline form 1, N-[5-(3,5-Difluoro-benzyl)-1H-indazol-3-yl]-4-(4-methyl-piperazin-1-yl)-2-(tetrahydro-pyran-4-ylamino)-benzamide]
 | 0.2 | low hygroscopicity | CN1CCN(c2ccc(C(=O)Nc3n[nH]c4ccc(Cc5cc(F)cc(F)c5)cc34)c(NC3CCOCC3)c2)CC1 [crystalline form 2, N-[5-(3,5-Difluoro-benzyl)-1H-indazol-3-yl]-4-(4-methyl-piperazin-1-yl)-2-(tetrahydro-pyran-4-ylamino)-benzamide]

SMILES | water uptake (DVS at 25° C., from RH values lower than 30% RH) | water uptake [1] [%] | hygroscopicity (in words)
CN1CCN(c2ccc(C(=O)Nc3n[nH]c4ccc(Cc5cc(F)cc(F)c5)cc34)c(NC3CCOCC3)c2)CC1 [amorphous form, N-[5-(3,5-Difluoro-benzyl)-1H-indazol-3-yl]-4-(4-methyl-piperazin-1-yl)-2-(tetrahydro-pyran-4-ylamino)-benzamide] | greater than 1% | 2.5 | higher hygroscopicity than the crystalline forms 1 and 2; also recorded: hygroscopic solid
